Biological target: T1, HIV-Protease (Human immunodeficiency virus type 1 group M subtype B, UniProt P04585)
T1 construct: Max-Planck-Institut für Molekulare Genetik, Berlin
Experiment: HIV protease test (cleavage of heptapeptide Ser-Phe-Asn-Phe-Pro-Gln-Ile, HPLC quantification of Ser-Phe-Asn-Phe)
Assay type: biochemical
Conditions: 2 h, 37°C; for IC50: cloned HIV protease, pH ca. 6,0; for activity at 100 µM / Restakt. bei 10^-4 M: residual enzyme activity at 10^-4 M inhibitor, 100 % = mean of runs without inhibitor, pH ca. 6,0, 1 % DMSO; for activity at 100 µM: read-out: Restakt. bei 10^-4 M; for Restakt. bei 10^-4 M: 100 µM
Source text: Als synthetisches Substrat ist ein Heptapeptid der Sequenz Ser-Phe-Asn-Phe-Pro-Gln-Ile geeignet. Diese Sequenz tritt im natürlichen Substrat der Protease auf und liefert bei der autokatalytischen Freisetzung nach einer Phe-Pro-Spaltung den N-terminalen Beginn der Proteasesequenz (Pro-Gln-Ile...).
Es wird eine klonierte HIV-Protease (Max-Planck-Institut für Molekulare Genetik, Berlin) benutzt. [drawing 5]
Von den Reaktionsprodukten wird Ser-Phe-Asn-Phe zur Abtrennung und quantitativen Bestimmung mittels HPLC herangezogen.
Nach 2 Stunden bei 37°C werden die Ansätze mit 225 µl HPLC-Elutionsmittel (s.u.) gestoppt. Etwa 150 µl des zentrifugierten Überstands (Eppendorf-Zentrifuge) werden in Mikrovials gefüllt. Das Injektionsvolumen für die HPLC-Trennung beträgt 20 µl. Ser-Phe-Asn-Phe wird durch Vergleich mit einem externen Standard bekannter Konzentration (0,5 µg/ 20 µl) quantitativ bestimmt und stellt die Meßgröße der Enzymaktivität (µg Tetrapeptid pro 20 µl Meßprobe) dar. Bezugswert (= 100 % Enzymaktivität) ist der Mittelwert aus 2 oder mehr Ansätzen ohne Inhibitor. Als Standard-Inhibitor wird Pepstatin A (10⁻⁴ oder 10⁻⁵ M) verwendet.
• a) Substratlösung: 2 mg Ser-Phe-Asn-Phe-Pro-Gln-Ile werden in 1 ml MGTE 15-Puffer gelöst. • b) Testsubstanzen: Diese werden 10⁻² oder 10⁻³ M in Dimethylsulfoxid (DMSO) gelöst und 1 : 40 mit MGTE 15-Puffer verdünnt; 10 µl dieser Lösung werden pro Ansatz verwendet; die Endkonzentration des Präparates beträgt 10⁻⁴ bzw. 10⁻⁵ M; die DMSO-Konzentration in allen Testansätzen ist 1 %. Für IC₅₀-Bestimmungen wird das Präparat, ausgehend von 10⁻² M, mit 100 % DMSO in der geeigneten Weise verdünnt. • c) Proteaselösung: Das Enzym wird mit MGTE 25-Puffer auf eine geeignete Konzentration verdünnt. • d) MGTE 15/25-Puffer 20 mM Morpholinoethansulfonsäure (MES) 15 (25) % (w/v) Glyzerin 0,1 % (v/v) Triton® X 100 (vgl. Merck Index 10, 6601) 5 mM EDTA 0,5 M NaCl 1 mM Dithiothreit (nur für MGTE 25) 1 mM Phenylmethylsulfonylfluorid (PMSF) Der pH-Wert soll ca. 6,0 betragen. • e) HPLC-Elutionsmittel: Eine 0,1 M Phosphorsäure-Lösung wird mit Triethylamin auf pH 2,5 eingestellt. Aus dieser Lösung wird ein Phosphorsäure-Acetonitril-Gemisch mit 22,6 Gewichts-Prozent Acetonitril hergestellt.
Säule: Radial Pak LC Cartridge, 8 mm/C18, 5 µ (der Fa. Waters, USA). Fluß: 1 ml/min Detektoreinstellung: 215 nm, 0,08 AU Zeit pro Analyse: 12 min; Retentionszeiten: Heptapeptid ca. 9,5 min, Tetrapeptid ca. 5,2 min Laufmittel: 77,4 Gew.-% 0,1 M H₃PO₄/pH 2,5 22,6 Gew.-% Acetonitril

Q: CCC[C@H](NC(=O)C(Cc1cccc2ccccc12)CS(=O)(=O)C(C)(C)C)C(=O)NC(CC1CCCC1)B1OC(C)(C)C(C)(C)O1 (stereo partly shown) [Beispiel 47, [3-t-Butylsulfonyl,2-(1-naphthylmethyl)]propionyl-Nva-[Cyclopentylmethyl,(4,4,5,5-tetramethyl-1,3,2-dioxaborolan-2-yl)]methylamid] was tested. Which IC50 did it give?
A: 10 µM

Q: What about the activity at 100 µM of the same compound?
A: 16%

Q: “Iva-Thi-His-(Cyclohexylmethyl,dihydroxyboryl)methylamid [Beispiel 9]” was tested. Which “Restakt. bei 10^-4 M” value did it give?
A: 93%

Q: Which results are given for CCC[C@H](NC(=O)C(Cc1ccccc1)CS(=O)(=O)C(C)(C)C)C(=O)NC(CC1CCCCC1)B1OC(C)(C)C(C)(C)O1 (stereo partly shown) [Beispiel 35, (2-Benzyl,3-t-butylsulfonyl)propionyl-Nva-[Cyclohexylmethyl,(4,4,5,5-tetramethyl-1,3,2-dioxaborolan-2-yl)]methylamid]?
A: IC50: 40 µM; activity at 100 µM: 22%

Q: How did the activity at 100 µM turn out when CCC[C@H](NC(=O)[C@H](Cc1ccccc1)NC(=O)CC(C)C)C(=O)NC(CC1CCC(C)CC1)B1OC(C)(C)C(C)(C)O1 (stereo partly drawn) [Beispiel 14, Iva-Phe-Nva-[(4-Methylcyclohexyl)methyl,(4,4,5,5-tetramethyl-1,3,2-dioxaborolan-2-yl)]methylamid] was run?
A: 75%

Q: CCC[C@H](NC(=O)C(Cc1cccc2ccccc12)CS(=O)(=O)C(C)(C)C)C(=O)NC(CC(CC)CC)B1OC(C)(C)C(C)(C)O1 (stereo partly shown) [Beispiel 48, [3-t-Butylsulfonyl,2-(1-naphthylmethyl)]propionyl-Nva-[3-Ethyl,1-(4,4,5,5-tetramethyl-1,3,2-dioxaborolan-2-yl)]pentylamid] was tested. Which IC50 did it give?
A: 60 µM

Q: And the activity at 100 µM?
A: 32%

Q: Which “Restakt. bei 10^-4 M” value does the source give for “Iva-Phe-Nva-[Cycloundecylmethyl, (4,4,5,5-tetramethyl-1,3,2-dioxaborolan-2-yl)]methylamid [Beispiel 13]” here?
A: 35%

Q: Which activity at 100 µM does the source give for CCC[C@H](NC(=O)[C@H](Cc1ccccc1)NC(=O)CC(C)C)C(=O)NC(CC1CCCCCC1)B1OC(C)(C)C(C)(C)O1 (stereo partly drawn) [Beispiel 15, Iva-Phe-Nva- (Cycloheptylmethyl,(4,4,5,5-tetramethyl-1,3 2-dioxaborolan-2-yl)]methylamid] here?
A: 86%

Q: How did the activity at 100 µM turn out when CC(C)CC(=O)N[C@@H](Cc1ccccc1)C(=O)N[C@@H](Cc1c[nH]cn1)C(=O)NC(CC1CCCCC1)B1OC(C)(C)C(C)(C)O1 (stereo partly drawn) [Beispiel 3, Iva-Phe-His-[Cyclohexylmethyl,(4,4,5,5-tetramethyl-1,3,2-dioxaborolan-2-yl)]methylamid] was run?
A: 61%

Q: Which “Restakt. bei 10^-4 M” value does the source give for “(3-t-Butylsulfonyl)propionyl-Nva-(1-Naphthylmethyl, dihydroxyboryl)methylamid [Beispiel 27]” here?
A: 77%

Q: “[3-t-Butylsulfonyl,2-(2-thienylmethyl)]propionyl-Thi-(Cycloheptylmethyl,dihydroxyboryl)methylamid [Beispiel 33]” was tested. Which “Restakt. bei 10^-4 M” value did it give?
A: 61%
